Laboratory results reported in publication PMC4109836, “Analysis of the co-operative interaction between the allosterically regulated proteins GK and GKRP using tryptophan fluorescence” (Biochemical Journal, 2014).
Numbering of substitutions follows the chain as printed. In names and notes the source's numbering stands. Like-named read-outs stand apart in the source and are kept apart here.

Tests used:
[1] = target: T1, GK-W99R/W167F/W257F (Homo sapiens, UniProt P35557, W167F/W257F/W99R); parameters: method as in ref 4 (a number printed in a supplementary file, which may have a reference list of its own: not looked up in the article's list); conditions: read-out: ATP Km; cited from earlier work
T1 construct: GST (cleaved yes); made in house; host or cells: Escherichia coli
T1 sequence (P35557 1-465 W99R/W167F/W257F): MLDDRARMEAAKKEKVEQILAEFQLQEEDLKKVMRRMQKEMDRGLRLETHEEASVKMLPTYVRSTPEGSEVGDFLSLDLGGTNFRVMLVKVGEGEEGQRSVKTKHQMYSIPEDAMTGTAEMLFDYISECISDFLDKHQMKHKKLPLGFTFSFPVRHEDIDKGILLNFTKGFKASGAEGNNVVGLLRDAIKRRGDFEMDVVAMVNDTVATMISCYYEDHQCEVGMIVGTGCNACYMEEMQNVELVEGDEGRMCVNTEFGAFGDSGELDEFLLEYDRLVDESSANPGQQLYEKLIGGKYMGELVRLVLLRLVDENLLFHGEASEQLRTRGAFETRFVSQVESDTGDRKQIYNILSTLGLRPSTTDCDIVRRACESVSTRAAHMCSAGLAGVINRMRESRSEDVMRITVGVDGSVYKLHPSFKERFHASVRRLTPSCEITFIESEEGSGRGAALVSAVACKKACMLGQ

[2] = target: T2, GK-WT (Homo sapiens, UniProt P35557); parameters: method as in ref 4 (a number printed in a supplementary file, which may have a reference list of its own: not looked up in the article's list); conditions: read-out: ATP Km; cited from earlier work
T2 construct: GST (cleaved yes); made in house; host or cells: Escherichia coli
T2 sequence (P35557 1-465): T1 sequence (P35557 1-465 W99R/W167F/W257F) with R99W, F167W, F257W

[3] = target: T3, hGKRP (0.3 μM)–GK-W99R/W167F/W257F (1 μM) complex, GKRP-P446L (Homo sapiens, UniProt P35557+Q14397, P446L/W167F/W257F/W99R); test: Ligand binding by / disassembly of GKRP-P446L–GK-W99R/W167F/W257F complex by TF of hGKRP; conditions: ligand titration of 3:1 GK–GKRP-P446L complex, 20°C
T3 construct: FLAG; GST (cleaved yes); made in house; host or cells: Escherichia coli
T3 sequence (Q14397 1-625 P446L): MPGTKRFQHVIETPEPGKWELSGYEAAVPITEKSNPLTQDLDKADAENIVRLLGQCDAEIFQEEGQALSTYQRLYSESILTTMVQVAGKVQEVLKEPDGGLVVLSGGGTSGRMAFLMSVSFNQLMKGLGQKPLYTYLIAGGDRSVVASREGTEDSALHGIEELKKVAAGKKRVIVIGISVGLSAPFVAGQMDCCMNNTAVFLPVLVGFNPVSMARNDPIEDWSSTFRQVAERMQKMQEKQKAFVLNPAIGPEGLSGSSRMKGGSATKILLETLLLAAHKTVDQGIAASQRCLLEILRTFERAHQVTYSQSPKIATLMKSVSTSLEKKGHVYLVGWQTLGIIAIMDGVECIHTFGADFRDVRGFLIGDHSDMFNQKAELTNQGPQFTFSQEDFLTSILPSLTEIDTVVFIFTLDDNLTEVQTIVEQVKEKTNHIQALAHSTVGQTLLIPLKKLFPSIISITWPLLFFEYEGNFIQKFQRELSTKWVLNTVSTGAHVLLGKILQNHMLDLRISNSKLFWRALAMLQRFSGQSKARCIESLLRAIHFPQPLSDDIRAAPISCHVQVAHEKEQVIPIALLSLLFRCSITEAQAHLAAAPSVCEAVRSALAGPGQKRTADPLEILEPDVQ
T3 sequence (P35557 1-465 W99R/W167F/W257F): T1 sequence (P35557 1-465 W99R/W167F/W257F)
Procedure: (§1) Spectra were measured with a Fluorolog-3-21 Jobin-Yvon Spex Instrument SA equipped with a 450 W Xenon lamp for excitation and a cooled R2658P Hamamatsu photomultiplier tube for detection. For all measurements, 90° geometry was employed and 295 nm excitation wavelengths were used to observe fluorescence emission in the 300–500 nm range. For TF, spectra slit width was set to provide a bandpath of 3 nm for excitation and 3 nm for emission. Spectra were corrected for instrumental response using Spex instrument software. A thermostatically controlled cell holder maintained sample temperature at 20°C. A thermocoupler was used to measure sample temperature. The buffer used contained 20 mM phosphate, 50 mM KCl, 1 mM EDTA and 1 mM DTT (pH 7.2).
(§2) Fluorescence data were obtained via the stepwise addition of the appropriate amount of non-fluorescent GK-W99R/W167F/W257F to GKRP in a fluorescence cuvette. […] The change in GKRP protein fluorescence during titration was also measured using time-dependent scans. A manual procedure was used such that a typical titration with 10–12 additions required 20–25 min to perform. The same buffer as described above was routinely used unless stated otherwise. The bandpath was 0.5 nm at 295 nm for excitation and 12 nm at 340 nm for emission. […] For some graphical presentations the linear form of the Hill equation was used: log[F/(Fsat−F)]=H log x−H log KD [46].

[4] = target: T4, GKRP-WT (Homo sapiens, UniProt Q14397); test: Ligand binding to free GKRP-WT measured by TF of GKRP; conditions: ligand alone; for H (Hill number) / ΔF (relative fluorescence change at 340 nm) / Kd: 0.3 μM GKRP-WT, 20°C; for Kd: read-out: S0.5
T4 construct: FLAG; made in house; host or cells: Escherichia coli
T4 sequence (Q14397 1-625): T3 sequence (Q14397 1-625 P446L) with L446P

[5] = target: T5, hGKRP (0.3 μM)–GK-W99R/W167F/W257F (1 μM) complex, GKRP-WT (Homo sapiens, UniProt P35557+Q14397, W167F/W257F/W99R); test: Ligand binding by / disassembly of GKRP-WT–GK-W99R/W167F/W257F complex by TF of hGKRP; conditions: ligand titration of 3:1 GK–GKRP-WT complex, 20°C
T5 construct: FLAG; GST (cleaved yes); made in house; host or cells: Escherichia coli
T5 sequence (Q14397 1-625): T3 sequence (Q14397 1-625 P446L) with L446P
T5 sequence (P35557 1-465 W99R/W167F/W257F): T1 sequence (P35557 1-465 W99R/W167F/W257F)
Procedure: as §1, §2

[6] = target: T6, GKRP-P446L (Homo sapiens, UniProt Q14397, P446L); test: Ligand binding to free GKRP-P446L measured by TF of GKRP; conditions: ligand alone; for H (Hill number) / ΔF (relative fluorescence change at 340 nm) / Kd: 0.3 μM GKRP-P446L, 20°C; for Kd: read-out: S0.5
T6 construct: FLAG; made in house; host or cells: Escherichia coli
T6 sequence (Q14397 1-625 P446L): T3 sequence (Q14397 1-625 P446L)

[7] = target: T7, GKRP-WT (Homo sapiens, UniProt P35557+Q14397, W167F/W257F/W99R); test: Titration of GKRP-WT with GK-W99R/W167F/W257F (GK–GKRP complex assembly) by TF; type: binding; conditions: saturating levels of F6P;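 also: tryptophan fluorescence of GKRP titrated with GK, excitation 295 nm, emission read at 340 nm, phosphate buffer pH 7.2, Hill equation fitting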
T7 construct: FLAG; GST (cleaved yes); made in house; host or cells: Escherichia coli
T7 sequence (Q14397 1-625): T3 sequence (Q14397 1-625 P446L) with L446P
T7 sequence (P35557 1-465 W99R/W167F/W257F): T1 sequence (P35557 1-465 W99R/W167F/W257F)

[8] = target: T8, GKRP-P446L (Homo sapiens, UniProt P35557+Q14397, P446L/W167F/W257F/W99R); test: Titration of GKRP-P446L with GK-W99R/W167F/W257F (GK–GKRP complex assembly) by TF; type: binding; conditions: saturating levels of F6P
T8 construct: FLAG; GST (cleaved yes); made in house; host or cells: Escherichia coli
T8 sequence (Q14397 1-625 P446L): T3 sequence (Q14397 1-625 P446L)
T8 sequence (P35557 1-465 W99R/W167F/W257F): T1 sequence (P35557 1-465 W99R/W167F/W257F)
Procedure: as §1, §2

[9] = target: T2, GK-WT; parameters: method as in ref 18 (a number printed in a supplementary file, which may have a reference list of its own: not looked up in the article's list); conditions: read-out: Kd for MH, cited from earlier work
[10] = test system: subjects with T2D; parameters: method as in PMID 21994424; conditions: cited from earlier work
[11] = Structural stability from urea denaturation curves (TF); type: physicochemical, human; conditions: buffer pH 7.2, 20°C; ±0.05

For `Nc1ncnc2c1ncn2[C@@H]1O[C@H](COP(=O)(O)OP(=O)(O)OP(=O)(O)O)[C@@H](O)[C@H]1O` [ATP], the Km [1] is given as 1960 µM and the Km [2] is given as 490 µM.

For `O=C(COP(=O)([O-])[O-])[C@@H](O)[C@H](O)[C@H](O)CO.[Na+].[Na+]` [F1P, D-fructose 1-phosphate sodium salt], the H [3] was 1, the “ΔF (relative fluorescence change at 340 nm)” value ([3]; glucose curve biphasic (two phases)) was −0.095 and the Kd ([3]; read-out: Kd (apparent)) was 298 µM. For the same molecule, the “H (Hill number)” value [4] was 1, the “ΔF (relative fluorescence change at 340 nm)” value [4] was −0.04 and the Kd [4] was 65 µM. For the same molecule, the “effect on the TF signal of GKRP-WT” value [4] was “decrease”, the H [5] was 1 and the “ΔF (relative fluorescence change at 340 nm)” value [5] was −0.086. The Kd ([5]; read-out: Kd (apparent)) was 127 µM, the “H (Hill number)” value [6] was 1 and the “ΔF (relative fluorescence change at 340 nm)” value [6] was −0.08. The Kd [6] was 139 µM and the “effect on the TF signal of GKRP-P446L” value [6] was “decrease”.

For `O=C(CO)[C@@H](O)[C@H](O)[C@H](O)COP(=O)([O-])[O-].[Na+].[Na+]` [F6P, D-fructose 6-phosphate disodium salt], the “H (Hill number)” value [4] was 3.6, the “ΔF (relative fluorescence change at 340 nm)” value [4] was 0.04 and the Kd [4] was 278 µM. The “effect on the TF signal of GKRP-WT” value [4] was “increase”, the “H (Hill number)” value [6] was 2.94 and the “ΔF (relative fluorescence change at 340 nm)” value [6] was 0.07. For the same molecule, the Kd [6] was 242 µM, the “effect on the TF signal of GKRP-P446L” value [6] was “increase” and the “effect on the binding of GKRP-WT to GK” value [7] was “no significant effect”. The “effect on the binding of GKRP-P446L to GK” value [8] was “increased the affinity of GKRP-P446L for GK”.

In the case of `O=C(CO)[C@@H](O)[C@@H](O)[C@H](O)[C@H](O)CO` [MH, D-mannoheptulose], the Kd ([9]; in the presence of GKA (20 μM)) is listed as 1000 µM and the Kd ([9]; without GKA) is listed as 17000 µM.

For `CCS(=O)(=O)c1ccc(Oc2cc(O[C@@H](C)CO)cc(C(=O)Nc3ccn(C)n3)c2)cn1` [MK0941], the “clinical effect, higher doses” value ([10]; higher doses of the drug) is given as “fast-onset transient effects associated with an increase in blood lipids and cardiovascular side effects” and the “clinical effect, low dose” value ([10]; low dose of the drug) is given as “slow-onset long-lasting beneficial effect”.

B1: GKRP-WT: recombinant human wild-type GK regulatory protein (protein)
chain: T3 sequence (Q14397 1-625 P446L) with L446P
modifications: left off: FLAG, end not stated, state not stated
notes: recombinant human wild-type GK regulatory protein
In the case of B1, the “ΔG(H2O) from urea denaturation curves” value [11] is reported as 1.56 kcal/mol.

B2: GKRP-P446L: recombinant human GKRP variant P446L (protein)
chain: T3 sequence (Q14397 1-625 P446L)
modifications: left off: FLAG, end not stated, state not stated
For B2, the “ΔG(H2O) from urea denaturation curves” value [11] was 1.55 kcal/mol.
